Laboratory results from ChEMBL document CHEMBL1142363, “Rhodanine derivatives as novel inhibitors of PDE4” (Bioorg Med Chem Lett, 2008).
Calls of active or inactive are those of the source. The calls are words filed in the database; no cut-off is given here.

Experiments:
[1] = target: 3',5'-cyclic-AMP phosphodiesterase 4B (Homo sapiens, UniProt Q07343); experiment: Inhibition of PDE4B
[2] = target: cGMP-inhibited 3',5'-cyclic phosphodiesterase 3A (Homo sapiens, UniProt Q14432); experiment: Inhibition of PDE3A
cGMP-inhibited 3',5'-cyclic phosphodiesterase 3A, sequence (Q14432 whole entry): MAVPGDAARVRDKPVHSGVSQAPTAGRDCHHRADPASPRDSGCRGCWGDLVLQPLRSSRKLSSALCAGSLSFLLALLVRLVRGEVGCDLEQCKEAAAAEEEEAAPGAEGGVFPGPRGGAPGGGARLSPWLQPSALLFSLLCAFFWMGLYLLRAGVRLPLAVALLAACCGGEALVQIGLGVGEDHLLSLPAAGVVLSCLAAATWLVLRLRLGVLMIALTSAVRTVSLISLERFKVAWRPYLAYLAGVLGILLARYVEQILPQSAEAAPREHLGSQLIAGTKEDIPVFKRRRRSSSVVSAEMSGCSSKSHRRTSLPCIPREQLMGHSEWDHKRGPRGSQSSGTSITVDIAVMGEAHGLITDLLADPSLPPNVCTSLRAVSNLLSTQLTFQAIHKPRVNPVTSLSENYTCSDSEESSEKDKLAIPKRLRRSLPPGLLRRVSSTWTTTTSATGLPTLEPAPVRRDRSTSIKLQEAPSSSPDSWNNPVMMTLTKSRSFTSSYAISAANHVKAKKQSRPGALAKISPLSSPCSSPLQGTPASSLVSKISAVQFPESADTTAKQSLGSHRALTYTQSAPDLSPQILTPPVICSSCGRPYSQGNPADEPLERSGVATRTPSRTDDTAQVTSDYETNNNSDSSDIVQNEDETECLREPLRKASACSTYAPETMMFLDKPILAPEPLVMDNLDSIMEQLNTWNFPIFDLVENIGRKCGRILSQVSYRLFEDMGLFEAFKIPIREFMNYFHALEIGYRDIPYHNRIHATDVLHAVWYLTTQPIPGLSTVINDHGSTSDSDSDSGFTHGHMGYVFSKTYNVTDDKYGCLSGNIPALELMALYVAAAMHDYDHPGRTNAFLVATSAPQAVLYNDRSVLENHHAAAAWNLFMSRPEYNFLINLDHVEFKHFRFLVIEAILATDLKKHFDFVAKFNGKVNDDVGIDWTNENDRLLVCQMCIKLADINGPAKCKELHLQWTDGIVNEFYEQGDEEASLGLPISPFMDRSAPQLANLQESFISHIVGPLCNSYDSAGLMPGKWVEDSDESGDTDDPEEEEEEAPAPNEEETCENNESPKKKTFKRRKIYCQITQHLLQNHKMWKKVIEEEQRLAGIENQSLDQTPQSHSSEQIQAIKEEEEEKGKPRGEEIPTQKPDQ

3',5'-cyclic-AMP phosphodiesterase 4B, sequence (Q07343 whole entry): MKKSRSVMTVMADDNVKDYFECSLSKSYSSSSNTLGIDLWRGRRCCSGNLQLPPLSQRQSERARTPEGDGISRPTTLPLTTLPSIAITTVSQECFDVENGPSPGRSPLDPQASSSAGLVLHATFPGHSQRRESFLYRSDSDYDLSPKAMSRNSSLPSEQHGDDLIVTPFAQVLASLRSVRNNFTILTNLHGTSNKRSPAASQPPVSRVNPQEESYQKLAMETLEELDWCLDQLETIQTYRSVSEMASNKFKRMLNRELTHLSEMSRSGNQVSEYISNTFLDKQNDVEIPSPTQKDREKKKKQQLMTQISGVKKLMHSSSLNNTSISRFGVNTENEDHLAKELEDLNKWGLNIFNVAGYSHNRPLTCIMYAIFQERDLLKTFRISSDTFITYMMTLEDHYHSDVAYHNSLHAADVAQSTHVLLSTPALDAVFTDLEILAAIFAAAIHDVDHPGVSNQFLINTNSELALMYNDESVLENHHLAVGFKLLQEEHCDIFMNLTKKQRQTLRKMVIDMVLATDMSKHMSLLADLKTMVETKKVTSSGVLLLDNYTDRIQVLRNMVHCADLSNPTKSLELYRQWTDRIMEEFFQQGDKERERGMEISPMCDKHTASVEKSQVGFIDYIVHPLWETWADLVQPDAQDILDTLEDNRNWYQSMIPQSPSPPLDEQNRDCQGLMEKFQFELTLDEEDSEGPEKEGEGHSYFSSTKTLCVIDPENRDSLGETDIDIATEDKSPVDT

Compound	IC50 [1] [µM]	IC50 [2] [µM]	Activity [2]	Activity [1]
CCN1C(=O)/C(=C/c2ccc(OC)c(OC)c2)SC1=S	–	–	–	inactive
COc1ccc(/C=C2\SC(=S)NC2=O)cc1	–	–	–	inactive
COc1ccc(/C=C2\SC(=S)NC2=O)cc1O	–	–	–	inactive
COc1ccc(/C=C2\SC(=S)N(C)C2=O)cc1OC	–	–	–	inactive
COc1cccc(/C=C2\SC(=S)NC2=O)c1	–	–	–	inactive
COc1ccc(/C=C2\SC(=S)N(CC(=O)O)C2=O)cc1OC	–	–	–	inactive
CCN1C(=O)/C(=C/c2ccc(OC)c(O)c2)SC1=S	11.2	–	inactive	–
COc1ccc(/C=C2\SC(=O)N(Cc3ccccc3)C2=O)cc1OC1CCCC1	–	–	–	inactive
COc1cc(/C=C2\SC(=S)NC2=O)cc(OC)c1OC	64.8	–	–	–
COc1ccc(/C=C2\SC(=S)NC2=O)cc1OCc1ccccc1	–	–	–	inactive
O=C1NC(=S)S/C1=C\c1ccc2c(c1)OCO2	–	–	–	inactive
O=C1NC(=S)S/C1=C\c1ccc(O)c(O)c1	–	–	–	inactive
COc1ccc(/C=C2\SC(=O)NC2=O)cc1OC	14.1	–	inactive	–
C=CCN1C(=O)/C(=C/c2ccc(OC)c(OC)c2)SC1=S	–	–	–	inactive
COc1cccc(/C=C2\SC(=S)NC2=O)c1OC	54.7	–	–	–
COc1ccc(C2CNC(=O)C2)cc1OC1CCCC1 (stereo not drawn)	–	–	inactive	–
CCN1C(=O)/C(=C/c2ccc(O)c(OC)c2)SC1=S	0.74	–	inactive	–

The remaining lines, values ahead:

IC50 [1] [µM]	IC50 [2] [µM]	Activity [2]	Activity [1]	Compound
5.3	39.8	–	–	CCOc1cc(/C=C2\SC(=S)NC2=O)ccc1OC
4.01	–	inactive	–	COc1ccc(/C=C2\CCNC2=O)cc1OC1CCCC1
3.07	–	inactive	–	COc1ccc(/C=C2\SC(=S)N(CC(=O)O)C2=O)cc1OC1CCCC1
4.13	–	inactive	–	C=CCN1C(=O)/C(=C/c2ccc(OC)c(OC3CCCC3)c2)SC1=S
6.91	9.46	–	–	CCOc1ccc(/C=C2\SC(=S)NC2=O)cc1OC
1.09	–	inactive	–	COc1ccc(/C=C2\SC(=O)NC2=O)cc1OC1CCCC1
0.89	10.8	–	–	COc1ccc(/C=C2\SC(=S)NC2=O)cc1OC1CCCC1
2.87	–	inactive	–	COc1ccc(/C=C2\SC(=S)N(C)C2=O)cc1OC1CCCC1
28.3	–	–	–	COc1ccc(/C=C2\SC(=S)NC2=O)cc1OC (stereo in doubt; 10a) [listing 1 of 2 here]
1.85	25	–	–	CCOc1ccc(/C=C2\SC(=S)NC2=O)cc1OC1CCCC1
3.08	–	inactive	–	C=CCOc1cc(/C=C2\SC(=S)NC2=O)ccc1OC
–	–	–	inactive	COc1cc(/C=C2\SC(=S)NC2=O)ccc1O
30.4	28.5	–	–	COc1cc(/C=C2\SC(=S)NC2=O)ccc1OC1CCCC1
–	–	inactive	–	COc1ccc(/C=C2\SC(=S)NC2=O)cc1OC (stereo in doubt; 10a) [listing 2 of 2 here]
17.9	10.5	–	–	COc1ccc(/C=C2\SC(=S)NC2=O)cc1OC (stereo in doubt; 2a)
0.31	–	inactive	–	COc1ccc(/C=C2\SC(=N)NC2=O)cc1OC1CCCC1 [PSEUDOTHIOHYDANTOIN]
1.94	–	inactive	–	COc1ccc(/C=C2\SC(=S)NC2=O)cc1OC1CCCCC1
6.51	80	–	–	CCOc1ccc(/C=C2\SC(=S)NC2=O)cc1OCC
